# Measured values taken from patent publication US20150352075A1, “Treatment of Alzheimer's and Cognitive Impairment With Andrographolides” (INNOBIOSCIENCE, LLC, priority 2013, published 2015).
# System: dentate gyrus of wild-type mice
# Assay: Adult hippocampal neurogenesis (Ki67, DCX immunofluorescence)
# Type: in vivo
# Method: Animals. Two-month-old C57BC6 wild-type mice were treated and handled according to National Institutes of Health guidelines (NIH, […], Md.). The treatments were performed by intraperitoneal (ip) injection of 2.0 mg/kg ANDRO and wild-type control animals were injected only with saline solution as vehicle.
# Mice were anesthetized (100 μg ketamine+10 μg xylazine in […] saline/g), and then transcardially perfused with saline, followed by 4% paraformaldehyde (PFA) in 0.1M PBS. The brains were removed and incubated in PBS-4% PFA for 24 h at room temperature, dehydrated in 30% sucrose and kept at 4° C. until analysis.
# After dehydration, each mouse brain was sectioned on a cryostate in 12 sets of serial coronal sections of […] thickness (Leica Microsystems, Wetzlar, Germany) and collected in ice-cold-PBS in multiwell dishes.Each set contained 5-7 sections covering the entire length of the hippocampus.
# Sections were washed with PBS 3 times for 5 min and then incubated in blocking solution (3% donkey serum, 3% BSA, 0.5% Triton X-100 in PBS) for 4 h. Then, tissues were incubated overnight with primary antibodies at 4° C. Primary antibodies used were: rabbit anti-Ki67 (Abcam), rabbit anti-DCX (Cell Signaling Technology Inc., Beverly, Mass., USA), monoclonal anti-NeuN (Millipore, Billerica, Mass., USA). After washing 3 times with 0.5% Triton X-100 PBS, sections were incubated with Dy Light (Abcam) conjugated secondary antibodies for 2 h at room temperature. […] For quantification, Ki67 positive cells were countedusing a fluorescence microscope (Olympus BX51, Tokyo, Japan). Cells were counted in all sections of one set (see tissue sectioning). Total cells counted in one set were multiplied by the total number of sets to obtain an estimation of the total number of Ki67+ cells in the complete hippocampus. For quantification of the % area covered by DCX, double labeling DCX/NeuN was carried. […] Images shown were analyzed by confocal laser microscopy (Olympus FV 1000) and z-projections were generated with ImageJ software.
# [1] = 2-month-old mice, 2 mg/kg i.p. 3 times per week for 4 weeks
structure (smiles),measurement,setting,value
"C=C1CC[C@@H]2C(C)(CO)C(O)CC[C@@]2(C)C1C/C=C1/C(=O)OCC1O (stereo in doubt) [ANDRO, 3-(2-(Decahydro-6-hydroxy-5-(hydroxymethyl)-5,8a-dimethyl-2-methylenenaphthyl)ethylidene)dihydro-4-hydroxyfuran-2(3H)-one]",percentage of the granular cell layer covered by DCX staining,[1],significantly increased
same,total number of Ki67+ cells in the SGZ,[1],significantly increased the total number of Ki67^+ cells
same,morphology of DCX+ cells,compared to control mice,more complex morphology
